Measurements reported in patent publication US8658131B2, “Compounds comprising 4-benzoylpiperidine as a sigma-1-selective ligand” (Washington University, priority 2010, dated 2014).
Structures can show the parent of a compound that is named as a salt.

Key:
[1] = target: T1, σ1 receptor (Cavia porcellus, UniProt Q60492); experiment: σ1 receptor binding assay, (+)-[3H]pentazocine, guinea pig brain membranes
T1 construct: using guinea pig brain membrane homogenates; from tissue; host or cells: guinea pig brain membrane homogenates
Procedure: (§1) The compounds were dissolved in DMF, DMSO, or ethanol, and then diluted in 50 mM Tris-HCl buffer containing 150 mM NaCl and 100 mM EDTA at pH 7.4, prior to performing the σ1 and σ2 receptor binding assays.
The total incubation time was 90 min at room temperature. Nonspecific binding was determined from samples that contained 10 μM of cold haloperidol. After 90 min, the reaction was quenched by adding 150 μL of ice-cold wash buffer (10 mM Tris-HCl, 150 mM NaCl, pH 7.4) using a 96 channel transfer pipet (Fisher Scientific, Pittsburgh, Pa.). The samples were harvested and filtered rapidly through a 96-well fiberglass filter plate (Millipore, Billerica, Mass.) that had been presoaked with 100 μL of 50 mM Tris-HCl buffer at pH 8.0 for 1 h.
(§2) Ki values were calculated using the method of Cheng and Prusoff and are presented as the mean (±1 SEM).

[2] = target: T2, human vesicular acetylcholine transporter (VAChT) (Homo sapiens, UniProt Q16572); experiment: VAChT binding assay, (−)-[3H]vesamicol, human VAChT expressed in PC12 cells; details: expressed human VAChT; mean ± SEM; read-out: VAChT (Ki)
T2 construct: expressed in transfected cells; host or cells: PC12 A123.7 cells (crude extract / homogenized, partially clarified cells)
T2 sequence (Q16572 1-532): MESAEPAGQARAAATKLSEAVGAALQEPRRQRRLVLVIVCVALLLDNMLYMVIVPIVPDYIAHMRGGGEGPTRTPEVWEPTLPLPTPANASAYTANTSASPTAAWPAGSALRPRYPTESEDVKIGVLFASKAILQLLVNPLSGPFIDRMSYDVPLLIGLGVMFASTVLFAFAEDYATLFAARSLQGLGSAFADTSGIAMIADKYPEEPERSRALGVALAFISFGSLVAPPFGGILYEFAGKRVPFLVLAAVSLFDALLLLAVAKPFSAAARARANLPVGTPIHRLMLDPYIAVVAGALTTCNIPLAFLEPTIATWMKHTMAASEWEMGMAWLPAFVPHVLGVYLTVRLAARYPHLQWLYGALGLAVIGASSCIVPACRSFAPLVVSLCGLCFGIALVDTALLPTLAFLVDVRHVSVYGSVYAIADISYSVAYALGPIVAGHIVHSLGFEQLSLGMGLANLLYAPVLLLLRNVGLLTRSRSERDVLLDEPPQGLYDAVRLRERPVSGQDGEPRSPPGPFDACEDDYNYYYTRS
Procedure: In vitro binding assays of these novel compounds to VAChT were conducted with human vesicular acetylcholine transporter (VAChT) permanently expressed in PC12^A123.7 cells at about 50 pmol/mg of crude extract. […] Duplicate data were averaged and fitted by regression with a rectangular hyperbola to estimate the Ki value of the novel compound. All compounds were independently assayed at least two times.

[3] = target: T3, σ2 receptor (Rattus norvegicus, UniProt Q5U3Y7); experiment: σ2 receptor binding assay, [3H]DTG, rat liver membrane homogenates; parameters: conducted using rat liver membrane homogenates; from tissue; host or cells: rat liver membrane homogenates; details: homogenates of rat liver; mean ± SEM; read-out: σ2 (Ki)
T3 sequence (Q5U3Y7 1-176): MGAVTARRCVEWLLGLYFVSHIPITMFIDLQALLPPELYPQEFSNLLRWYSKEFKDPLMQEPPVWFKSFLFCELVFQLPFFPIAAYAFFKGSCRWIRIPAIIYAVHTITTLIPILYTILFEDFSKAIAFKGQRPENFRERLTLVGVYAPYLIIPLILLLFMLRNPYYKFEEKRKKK
Procedure: as §1
The incubation time was 2 h at room temperature. Nonspecific binding was determined from samples that contained 10 μM of cold haloperidol. All other procedures were identical to those described for the σ1 receptor binding assay above.
as §2

T1 sequence (Q60492 whole entry): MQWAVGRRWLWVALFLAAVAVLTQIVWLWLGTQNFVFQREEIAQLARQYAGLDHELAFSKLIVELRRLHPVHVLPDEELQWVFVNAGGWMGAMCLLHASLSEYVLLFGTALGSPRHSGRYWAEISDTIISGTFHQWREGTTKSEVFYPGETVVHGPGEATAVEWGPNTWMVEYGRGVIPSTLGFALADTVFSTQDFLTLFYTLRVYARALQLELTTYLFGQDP

Compound	melting point	further results
O=C(c1ccc(F)cc1)C1CCN(C2CCN(C(=O)c3ccccc3)CC2O)CC1 (stereo not drawn) (as salt: oxalate) [Compound 15c, (1′-Benzoyl-3′-hydroxy-[1,4′-bipiperidin]-4-yl)(4-fluorophenyl)methanone]	152 °C (dec.)	–
COc1ccc(C(=O)C2CCN(C3Cc4c(N)cccc4CC3O)CC2)cn1 (stereo not drawn) (as salt: oxalate) [OS-5-82, (1-(8-Amino-3-hydroxy-1,2,3,4-tetrahydronaphthalen-2-yl)piperidin-4-yl)(6-methoxypyridin-3-yl)methanone oxalate]	81.4 to 83.2 °C	–
Cc1ccc(C(=O)C2CCN(C3Cc4c(N)cccc4CC3O)CC2)cn1 (stereo not drawn) (as salt: oxalate) [OS-5-70, (1-(8-amino-3-hydroxy-1,2,3,4-tetrahydronaphthalen-2-yl)piperidin-4-yl)(6-methylpyridin-3-yl)methanone oxalate]	98 to 103 °C	–
Nc1cccc2c1CC(N1CCC(C(=O)c3cccnc3)CC1)C(O)C2 (stereo not drawn) (as salt: oxalate) [OS-5-110, (1-(8-Amino-3-hydroxy-1,2,3,4-tetrahydronaphthalen-2-yl)piperidin-4-yl)(pyridin-3-yl)methanone oxalate]	109 to 111.2 °C	–
COc1ccc(C(=O)C2CCN(C3CCN(C(=O)c4ccncc4)CC3O)CC2)cc1 (stereo not drawn) (as salt: oxalate) [Compound 15g, (3′-Hydroxy-1′-isonicotinoyl-[1,4′-bipiperidin]-4-yl)(4-methoxyphenyl)methanone]	220 °C (dec.)	–
O=C(c1ccc(F)cc1)C1CCN(C2CCN(C(=O)c3ccc(F)cc3)CC2O)CC1 (stereo not drawn) (as salt: oxalate) [Compound 15a, (3′-Hydroxy-[1,4′-bipiperidine]-1′,4-diyl)bis(4-fluorophenyl)methanone]	213 °C (dec.)	–
COc1ccc(C(=O)C2CCN(C3CCN(Cc4ccncc4)CC3O)CC2)cc1 (racemic) (as salt: oxalate) [Compound 14h, (3′-Hydroxy-1′-(pyridin-4-ylmethyl)-[1,4′-bipiperidin]-4-yl)(4-methoxyphenyl)methanone]	188 °C (dec.)	–
Cn1cccc1C(=O)C1CCN(C2Cc3ccccc3CC2O)CC1 (stereo not drawn) (as salt: oxalate) [OS-5-60, (1-(3-Hydroxy-1,2,3,4-tetrahydronaphthalen-2-yl)piperidin-4-yl)(1-methyl-1H-pyrrol-2-yl) methanone oxalate]	212 to 213 °C	–
COc1ccc(C(=O)C2CCN(C3CCN(C(=O)c4ccc(F)cc4)CC3O)CC2)cc1 (stereo not drawn) (as salt: oxalate) [Compound 15e, (1′-(4-Fluorobenzoyl)-3′-hydroxy-[1,4′-bipiperidin]-4-yl)(4-methoxyphenyl)methanone]	216 °C (dec.)	–
(4-Fluorophenyl)(4′-hydroxy-1′-(pyridin-4-ylmethyl)-[1,3′-bipiperidin]-4-yl)methanone [Compound 16d]	–	Ki ([1]; membrane preparations of guinea pig brain, mean ± SEM, at least three experiments, read-out: σ1 (Ki)): 1.16 ± 0.128 µM; σ1/VAChT selectivity ([1]; ratio of Ki values, Table 1): 0.20; σ1/σ2 selectivity ([1]; ratio of Ki values, Table 1): 11; Ki [2]: 0.237 µM; Ki [3]: 13 ± 2.63 µM
COc1ccc(C(=O)C2CCN(C3CCN(Cc4ccccc4)CC3O)CC2)cc1 (racemic) (as salt: oxalate) [Compound 14g, (1′-Benzyl-3′-hydroxy-[1,4′-bipiperidin]-4-yl)(4-methoxyphenyl)methanone]	234 °C (dec.)	–
